For series [1], the system named is Huh-7 cells. Put plainly: Toxicity by CytoTox-1 cell proliferation assay (TC50) and selectivity index. Conditions: TC50 by CytoTox-1 cell proliferation assay over replicon EC50, Huh-7 cells. In kind it is cell-based. Here is the method:
(§1) All the replicon assays were luciferase based in Huh-7 cells, either in stable format (GT1b and GT1a) or by transient transfection by electroporation (chimeric and mutant replicons). For a standard HCV replicon assay, stable or transiently transfected Huh-7 cells were seeded in 96-well plates (5,000 cells/well), cultured in DMEM containing 10% FBS, and incubated at 37° C., 5% CO2. On the following day, test compounds were diluted with assay media and added to the appropriate wells (final DMSO concentration in the cell culture medium was 0.5%). Assay reference positive control was included in each run to ensure assay performance. Cells were incubated at 37° C., 5% CO2 for 72 hours, at which time the cells were still sub-confluent. The antiviral activity was determined by measuring replicon reporter firefly luciferase activity using Bright Glo kit in accordance with the protocol provided by the supplier (Promega). The toxicity of the test compounds was assessed by CytoTox-1 cell proliferation assay (Promega). The half maximal effective concentration (EC50) and the half maximal toxic concentration (TC50) values were calculated using the GraphPad Prism software.

In series [2] the test system is GT1b/3a NS5B chimeric replicon. Put plainly: HCV replicon assay, GT1b/3a NS5B chimeric replicon, transient transfection. Type of series: cell-based, hepatitis C virus. As to the method:
(§2) The antiviral activity of the test compounds was assessed in the wild type GT1b (Con1), GT1a (H77), and GT1b/2a, GT1b/3a, GT1b/4a and GT1b/5a NS5B chimeric replicons, as well as the NS5B mutant replicons listed in Table 2a and 2b.
(§3) To generate HCV NS5B chimeric replicons, the GT1 b replicon was used as a backbone with the NS5B gene replaced with the NS5B gene of GT2a, GT3a, GT4a and GT5a derived from clinical isolates. These NS5B genes were cloned into the GT1b backbone and were confirmed by sequencing.
as §1

Series [3] has as its system GT1b (Con1) HCV replicon. Put plainly: HCV replicon assay, wild type GT1b (Con1), luciferase based, stable format. In kind it is cell-based, hepatitis C virus. Conditions: Huh-7 cells. As to the method: as §2, §1
The test system of series [4] is GT1a (H77) HCV replicon. Kind of series: HCV replicon assay, wild type GT1a (H77), luciferase based, stable format. Type of series: cell-based, hepatitis C virus. The note with it: Huh-7 cells, 72 hours. As to the method: as §2, §1
Series [5] has as its system GT1b/4a NS5B chimeric replicon. Put plainly: HCV replicon assay, GT1b/4a NS5B chimeric replicon, transient transfection. Type of series: cell-based, hepatitis C virus. Conditions: read-out: GT4a EC50; GT1b/4a NS5B chimeric replicon, Huh-7 cells, luciferase, 72 hours. As to the method:
as §2, §3, §1

Series [6] relates to GT1b/5a NS5B chimeric replicon. Put plainly: HCV replicon assay, GT1b/5a NS5B chimeric replicon, transient transfection. In kind it is cell-based, hepatitis C virus. Conditions: read-out: GT5a EC50; GT1b/5a NS5B chimeric replicon, Huh-7 cells, luciferase, 72 hours. As to the method: as §2, §3, §1
In series [7] the test system is GT1b/2a NS5B chimeric replicon. Put plainly: HCV replicon assay, GT1b/2a NS5B chimeric replicon, transient transfection. Type of series: cell-based, hepatitis C virus. The note with it: read-out: GT2a EC50; GT1b/2a NS5B chimeric replicon, Huh-7 cells, luciferase, 72 hours. As to the method:
as §2, §3, §1

The nature of series [8]: Nucleoside phosphoester stability in simulated intestinal fluid. In kind it is in vitro ADME. Here is the method:
Test compounds at 2 μM were incubated at 37° C. with simulated intestinal fluid (SIF), which contains 0.68% (w/v) monobasic potassium phosphate and 1% (w/v) pancreatin in ultra-pure water (pH 6.8). Duplicate samples were used. Samples were removed at 0, 15, 30, 60, 120, 360 and 1440 min, immediately mixed with cold acetonitrile containing an internal standard (IS), and stored at −80° C. before analysis. Chlorambucil was used as a positive control. Samples were analyzed by a LC/MS/MS method, and disappearance of test compound was assessed by comparison of peak area ratios of analyte/IS and reported as % test compound remaining at each time point.

A short description of series [9]: Nucleoside phosphoester stability in simulated gastric fluid. In kind it is in vitro ADME. Conditions: simulated gastric fluid pH 1.2, 2 μM, 37° C. As to the method:
Test compounds at 2 μM were incubated at 37° C. with simulated gastric fluid (SGF, 0.2% (w/v) sodium chloride in 0.7% (v/v) hydrochloric acid, deionized water, 0.3% pepsin (w/v), pH 1.2). Duplicate samples were used. Samples were removed at 0, 15, 30, 60, 120, 360 and 1440 min, immediately mixed with cold acetonitrile containing internal standard (IS), and stored at −80° C. before analysis. Omeprazole was used as a positive control. Samples were analyzed by LC/MS/MS method, and disappearance of test compound was assessed by comparison of peak area ratios of analyte/IS and reported as % test compound remaining at each time point.

Where [10] appears, read: Hepatitis C virus, Huh-7, 72 h, read-out: GT3a EC50, GT1b/3a NS5B chimeric replicon, Huh-7 cells, luciferase, 72 hours.
The mark [11] stands for this setting: Hepatitis C virus, GT1B, Huh-7, 72 h.
The mark [12] stands for this setting: read-out: GT3a EC50, GT1b/3a NS5B chimeric replicon, Huh-7 cells, luciferase, 72 hours.

Like-named read-outs stand apart in the source and are kept apart here.

On to `CC(C)(C)SSc1ccccc1CCOP1(=O)OC[C@H]2O[C@@H](n3ccc(=O)[nH]c3=O)[C@](C)(F)[C@@H]2O1` (stereo partly shown) [Compound 7B], for which, in series [1], the “Selectivity Index (TC50/EC50)” value was greater than 500. The EC50 came out at 14 nM in series [2] (setting [10]) and 20 nM in [3] (setting [11]).

Take `CC(C)(C)SSc1ccccc1CCOP1(=O)OC[C@H]2O[C@@H](n3ccc(N)nc3=O)[C@](C)(N)[C@@H]2O1` (single isomer, unassigned) [Compound 19B]: the EC50 in series [4] turned out to be 858 nM; in series [2] (setting [12]), 1340 nM; in series [5], 344 nM; in [6], 1350 nM; in [3] (72 hours), 1030 nM; in series [7], 780 nM.

Regarding `O=C(O)CCCc1ccc(N(CCCl)CCCl)cc1` [Chlorambucil, reference compound], the “% Remaining” value was 100.00% in series [8] (simulated intestinal fluid pH 6.8, 2 μM, 37° C., 0 min); 81.31% in [8] (simulated intestinal fluid pH 6.8, 2 μM, 37° C., 15 min); 64.39% in [8] (simulated intestinal fluid pH 6.8, 2 μM, 37° C., 30 min); 34.82% in series [8] (simulated intestinal fluid pH 6.8, 2 μM, 37° C., 60 min); 5.08% in series [8] (simulated intestinal fluid pH 6.8, 2 μM, 37° C., 120 min); 0.00% in [8] (simulated intestinal fluid pH 6.8, 2 μM, 37° C., 360 min). Also, in series [8] (simulated intestinal fluid pH 6.8, 2 μM, 37° C., 1440 min), the “% Remaining” value was 0.00%.

With `CC(C)(C)SSCCCCOP1(=O)OC[C@H]2O[C@@H](n3ccc(=O)[nH]c3=O)[C@](C)(F)[C@@H]2O1` (single isomer, unassigned) [Compound 6A], the “Selectivity Index (TC50/EC50)” value in series [1] was greater than 12. In [3] (setting [11]), this molecule had an EC50 of 840 nM.

In the case of `CC(C)(C)SSc1ccccc1CCOP1(=O)OC[C@H]2O[C@@H](n3ccc(N)nc3=O)[C@](C)(O)[C@@H]2O1` (single isomer, unassigned) [Compound 10A], the “Selectivity Index (TC50/EC50)” value in series [1] is greater than 500. Also, the EC50 in series [2] (setting [10]) worked out at 41 nM; in series [3] (setting [11]) it was 40 nM.

For the molecule `CC(C)(C)SSc1ccccc1CCOP1(=O)OC[C@H]2O[C@@H](n3ccc(N)nc3=O)[C@](C)(F)[C@@H]2O1` (single isomer, unassigned) [Compound 9B], the “Selectivity Index (TC50/EC50)” value in series [1] was greater than 500. Further, the “% Remaining” value is reported as 100.00% in [8] (simulated gi fluid, 0 h, 2 μM, pH 6.8); 98.51% in [8] (simulated gi fluid, 0.25 h, 2 μM, pH 6.8); 91.63% in [8] (simulated gi fluid, 0.5 h, 2 μM, pH 6.8); 99.30% in series [8] (simulated gi fluid, 1 h, 2 μM, pH 6.8); 97.42% in series [8] (simulated gi fluid, 2 h, 2 μM, pH 6.8); 72.51% in series [8] (simulated gi fluid, 6 h, 2 μM, pH 6.8). In addition, the “% Remaining” value is recorded as 33.69% in [8] (simulated gi fluid, 24 h, 2 μM, pH 6.8); 100.00% in series [9] (0 min); 95.72% in series [9] (15 min); 98.51% in series [9] (30 min); 100.39% in series [9] (60 min); 92.48% in [9] (120 min). For the same molecule, the figures for the “% Remaining” value in [9] (360 min) and in [9] (1440 min) were 65.99% and 21.04%, respectively. Moreover, the EC50 in series [2] (setting [12]) was found to be 29 nM; in [3] (72 hours) it was 13 nM.

Consider `CC(C)(C)SSCCCCOP1(=O)OC[C@H]2O[C@@H](n3ccc(=O)[nH]c3=O)[C@](C)(F)[C@@H]2O1` (single isomer, unassigned) [Compound 6B], for which the “Selectivity Index (TC50/EC50)” value in [1] was greater than 14. The EC50 in [3] (72 hours) amounted to 730 nM.

Take `COc1ccc2[nH]c([S+]([O-])Cc3ncc(C)c(OC)c3C)nc2c1` (stereo not shown) [Omeprazole, reference compound]: the “% Remaining” value was 100.00% in series [9] (0 min); 79.48% in series [9] (15 min); 66.64% in [9] (30 min); 34.79% in [9] (60 min); 33.00% in series [9] (120 min); 6.17% in [9] (360 min). Besides, the “% Remaining” value in [9] (1440 min) is on record as 1.24%.

Take `CC(C)(C)SSc1ccccc1CCOP1(=O)OC[C@H]2O[C@@H](n3cnc4c(N)nc(N)nc43)[C@](C)(O)[C@@H]2O1` (single isomer, unassigned) [Compound 16B]: in [1], the “Selectivity Index (TC50/EC50)” value was greater than 250. Moreover, the values for the EC50 in [2] (setting [12]) and in series [3] (72 hours) were 5 nM and 40 nM, respectively.

For `CC(C)(C)SSc1ccccc1CCOP1(=O)OC[C@H]2O[C@@H](n3ccc(=O)[nH]c3=O)[C@](C)(O)[C@@H]2O1` (stereo partly shown) [Compound 8A], the “Selectivity Index (TC50/EC50)” value in series [1] was greater than 500. In addition, the EC50 worked out at 6 nM in series [2] (setting [10]) and 10 nM in series [3] (setting [11]).

Turning to `CC(C)(C)SSc1ccccc1CCOP1(=O)OC[C@H]2O[C@@H](n3cnc4c(N)nc(N)nc43)[C@](C)(O)[C@@H]2O1` (single isomer, unassigned) [Compound 16A], the “Selectivity Index (TC50/EC50)” value in series [1] was greater than 500. Moreover, the EC50 in series [2] (setting [10]) stood at 6 nM; in series [3] (setting [11]), 20 nM.

For the molecule `CC(C)(C)SSc1ccccc1CCOP1(=O)OC[C@H]2O[C@@H](n3ccc(N)nc3=O)[C@](C)(N)[C@@H]2O1` (single isomer, unassigned) [Compound 19A], the EC50 in series [4] was found to be 169 nM; in series [2] (setting [12]), 228 nM; in [5] it was 77 nM; in series [6] it was 288 nM; in series [3] (72 hours), 177 nM; in series [7], 151 nM.

As to `CC(C)(C)SSc1ccccc1CCOP1(=O)OC[C@H]2O[C@@H](n3ccc(N)nc3=O)[C@](C)(O)[C@@H]2O1` (single isomer, unassigned) [Compound 10B], the “Selectivity Index (TC50/EC50)” value in [1] is greater than 500. Further, the EC50 in [2] (setting [12]) and in series [3] (72 hours) was 21 nM each time.

With `CC(C)(CCO)SSc1ccccc1CCOP1(=O)OC[C@H]2O[C@@H](n3ccc(=O)[nH]c3=O)[C@](C)(F)[C@@H]2O1` (stereo partly shown) [Compound 18A], the “Selectivity Index (TC50/EC50)” value in series [1] is listed as greater than 200. In addition, in series [3] (setting [11]), the EC50 was 50 nM.
